Experimental data: US9332761B2, “Synergistic combination of a chlorotoluron compound and zinc pyrithione for dry film protection” (Rohm and Haas Company, priority 2013, dated 2016)

Tested on: Chlorella sp. ATCC 7516
Assay: Algal efficacy testing of dry paint films (modified ASTM 5589, 6-well plates)
Type: cell-based
Conditions: 3 weeks; for Total conc, ppm (minimum total biocide concentration in paint reaching pass level): pass level >=75% algal growth inhibition, acrylic/silicone paint film on filter paper
Procedure: These paints were then diluted with an antimicrobial free acrylic/silicone based paint and mixed to prepare targeted concentrations of antimicrobial compounds for the testing. The total biocides concentrations tested were 125, 250, 500, 1000, 2000 and 5000 ppm. After biocides addition or dilution, the paints were mixed 90 seconds with the horse power shaker (AXEL 75M3372/Agitateur SO-10MI) until uniformity was achieved. Paints containing different antimicrobial compounds at the same levels were mixed together in order to obtain the desired ratio of antimicrobial compounds. After one day, the paints were applied to Schleicher & Schuell filter paper at 280 μm wft and dried for 3 days at room temperature avoiding direct exposure to sunlight. Square discs (1.6 cm×1.6 cm) were cut out from each panel and were used as the substrate for algal efficacy tests. This sample size allowed for an agar border when the sample disc was placed into the well of the test plate.
Algal efficacy was tested according to modified ASTM 5589 which is a standard accelerated test method for determining resistance of various coatings (including paints) to algal defacement. To accommodate for high-throughput screening, this method was scaled down from petri dishes to 6-well plates. Bold Modified Basal Freshwater Nutrient Solution was used as growth medium. A single coated filter paper coupon was placed with a pair of sterile forceps at the center of the agar plug (on top) with the painted surface facing upwards.
Each well that contains a tested coupon was inoculated with 1750 μl of algal suspensions (1×10^6 cfu/ml) making sure that the whole surface (paint film as well as the agar surrounding it) was evenly covered. The plates were incubated at room temp (21° C.-25° C.) with cyclic exposure to light and dark phases, for a period of three weeks.
At the end of the three week incubation period, the samples were scored for percent inhibition regarding color intensity compared to the blank sample.
The Synergy Index calculation was performed as follows.
The SI is calculated based on F. C.
SI value of <1 in the formula indicates a synergism of the blended biocides exists.
The minimal targeted inhibition was set at 75%, meaning a coupon with at least 75% algal growth inhibition was considered as a pass.

SMILES	% inhibition (at total conc 500 ppm in paint) [%]	Total conc, ppm (minimum total biocide concentration in paint reaching pass level) [ppm]	inhibition at 1000 ppm (504 h, at total conc 1000 ppm in paint) [%]
[O-][n+]1ccccc1[S][Zn][S]c1cccc[n+]1[O-] [ZnPT, bis(2-pyridylthio)zinc 1,1′-dioxide]	95	500	–
Cc1ccc(NC(=O)N(C)C)cc1Cl [Chlorotoluron, N′-(3-chloro-4-methylphenyl)-N,N-dimethylurea]	–	1000	100
